For assay [1], the target named is T1, neuronal nitric oxide synthetase (Rattus norvegicus, UniProt P29476).
T1 construct: Enzyme was isolated from rat hippocampus or cerebellum; from tissue; host or cells: cerebellum or hippocampus of male Sprague-Dawley rat, 20,000 g supernatant
Briefly: Screen A: screen for neuronal nitric oxide synthetase inhibitory activity. In kind it is biochemical. Particulars: for IC50: neuronal isoform, rat hippocampus or cerebellum supernatant, read-out: IC50 (concentration of drug substance which gives 50% enzyme inhibition in the assay).
Experimental: (A) Screen for neuronal nitric oxide synthetase inhibitory activity
Enzyme was isolated from rat hippocampus or cerebellum. The cerebellumn or hippocampus of a male Sprague-Dawley rat (250-275 g) is removed following CO2 anaesthesia of the animal and decapitation. Cerebellar or hippocampal supernatant is prepared by homogenisation in 50 mM Tris-HCl with 1 mM EDTA buffer (pH 7.2 at 25° C.) and centifugation for 15 minutes at 20,000 g. Residual L-arginine is removed from the supernatant by chromatography through Dowex AG-50W-X8 sodium form and hydrogen form columns successively, and further centrifugation at 1000 g for 30 seconds.
For the assay, 25 μl of the final supernatant is added to each of 12 test tubes containing 25 μl L-arginine solution (of concentration 18 μM ^1 H-L-arginine, 96 nM ^3 H-L-arginine) and either 25 μl of an assay buffer (50 mM HEPES, 1 mM EDTA, 1.5 mM CaCl2, pH 7.4) or 25 μl of test compound in the buffer at 22° C. To each test tube was added 75 μl of complete assay buffer (50 mM HEPES, 1 mM EDTA, 1.5 mM CaCl2, 1 mM DTF, 100 μM NADPH, 10 μg/ml calmodulin, pH 7.4) to initiate the reaction and the reaction is stopped after 10 minutes by addition of 2 ml of a termination buffer (20 mM HEPES, 2 mM EDTA, pH 55).
Labelled L-citrulline is separated from labelled L-arginine by chromatography over a Dowex AG-50W-X8 200-400 mesh column. 1 ml of each terminated reaction is added to an individual 1 ml column and the eluant combined with that from two 1 ml distilled water washes and 16 ml of scintillation cocktal The L-citrulline is then quantified by scintillation counting.
IC50 values for test compounds were initially estimated from the inhibiting activity of 1, 10 and 100 μM solutions of the compounds. Compounds that inhibited the enzyme by at least 50% at 10 μM were retested using more appropriate concentrations so that an IC50 could be determined.

For assay [2], the target named is T2, macrophage nitric oxide synthetase (Mus musculus, UniProt P29477).
T2 construct: Nitric oxide synthetase is produced by cells in response to interferon-γ (IFNγ) and lipopolysaccharide (LPS); endogenous in cells; host or cells: murine macrophage cell line J774A-1, induced with IFN-gamma and LPS (cell line from Imperial Cancer Research Fund)
Briefly: Screen B: screen for macrophage nitric oxide synthetase activity. In kind it is biochemical, murine. The settings on record: macrophage isoform (Screen B) versus neuronal isoform (Screen A). From the text: The enzyme nitric oxide synthetase has a number of isoforms and compounds of formula I, or pharmaceutically acceptable salts thereof, may be screened for nitric oxide synthetase inhibitory activity by procedures based on those of Bredt and Snyder in Proc. Natl. Acad. Sci (1990) 87, 682-685 and Forstermann et. al. (1992) Eur. J. Pharm. 225,161-165 as follows. Nitric axide synthetase converts ^3 H-L-arginine to ^3 H-L-citrulline which can be separated by cation exchange chromatography and quantified by liquid scintillation counting.
(B) Screen for macrophage nitric oxide synthetase activity
Enzyme is prepared; after induction, from the cultured murine macrophage cell line J774A-1 (obtained from laboratories of the Imperial Cancer Research Fund). J774A-1 cells are cultured in Dulbecco's Modified Eagles Medium (DMEM) supplemented with 10% foetal bovine serum, 4 mM L-glutamine and antibiotics (100 units/ml penicillin G, 100 μg/ml streptomycin & 0.25 μg/m amphotericin B). Cells are routinely grown in […] flasks containing 35 ml medium kept at 37° C. and in a humidified atmosphere containing 5% CO2.
Nitric oxide synthetase is produced by cells in response to interferon-γ (IFNγ) and lipopolysaccharide (LPS). […]
Labelled L-citrulline is separated from labelled L-arginine using Dowex AG-50W. […] After allowing the samples to dry the L-citrulline is quantified by scintillation counting. […]

Assay [3] addresses T3, endothelial nitric oxide synthetase (Homo sapiens, UniProt P29474).
T3 construct: Enzyme may be isolated from human umbilical vein endothelial cells (HUVECs); host or cells: human umbilical vein endothelial cells (HUVECs)
Briefly: Screen C: screen for endothelial nitric oxide synthetase inhibitory activity. In kind it is biochemical.
Text: (C) Screen for endothelial nitric oxide synthetase inhibitory activity
Enzyme may be isolated from human umbilical vein endothelial cells (HUVECs) by a procedure based on that of Pollock et al (1991) Proc. Nat. […] HUVECs were purchased from Clonetics Corp (San Diego, Calif., USA) and cultured to confluency. Cells can be maintained to passage 35-40 without significant loss of yield of nitric oxide synthetase. When cells reach confluency, they are resuspended in Dulbecco's phosphate buffered saline, centrifuged at 800 rpm for 10 mins, the cell pellet homogenised in ice-cold 50 mM Tris-HCl, 1 mM EDTA, 10% glycerol, 1 mM phenylmethylsulphonylfluoride, 2 μM leupeptin at pH 4.2. Following centrifugation at 34,000 rpm for 60 mins, the pellet is solubilised in the homogenisation buffer which also contains 20 mM CHAPS. After a 30 min incubation on ice, the suspension is centrifuged at 34,000 rpm for 30 mins. The resulting supernatant is stored at -80° C. until use. […]
Labelled L-citrulline is separated from labelled L-arginine by chromatography over a Dowex AG-50W-X8 200-400 mesh column. […] The L-citrulline is then quantified by scintillation counting. […]

Molecules are shown by their SMILES. Where only a bound is given, the exact number is not on record here.

T1 sequence (P29476 whole entry): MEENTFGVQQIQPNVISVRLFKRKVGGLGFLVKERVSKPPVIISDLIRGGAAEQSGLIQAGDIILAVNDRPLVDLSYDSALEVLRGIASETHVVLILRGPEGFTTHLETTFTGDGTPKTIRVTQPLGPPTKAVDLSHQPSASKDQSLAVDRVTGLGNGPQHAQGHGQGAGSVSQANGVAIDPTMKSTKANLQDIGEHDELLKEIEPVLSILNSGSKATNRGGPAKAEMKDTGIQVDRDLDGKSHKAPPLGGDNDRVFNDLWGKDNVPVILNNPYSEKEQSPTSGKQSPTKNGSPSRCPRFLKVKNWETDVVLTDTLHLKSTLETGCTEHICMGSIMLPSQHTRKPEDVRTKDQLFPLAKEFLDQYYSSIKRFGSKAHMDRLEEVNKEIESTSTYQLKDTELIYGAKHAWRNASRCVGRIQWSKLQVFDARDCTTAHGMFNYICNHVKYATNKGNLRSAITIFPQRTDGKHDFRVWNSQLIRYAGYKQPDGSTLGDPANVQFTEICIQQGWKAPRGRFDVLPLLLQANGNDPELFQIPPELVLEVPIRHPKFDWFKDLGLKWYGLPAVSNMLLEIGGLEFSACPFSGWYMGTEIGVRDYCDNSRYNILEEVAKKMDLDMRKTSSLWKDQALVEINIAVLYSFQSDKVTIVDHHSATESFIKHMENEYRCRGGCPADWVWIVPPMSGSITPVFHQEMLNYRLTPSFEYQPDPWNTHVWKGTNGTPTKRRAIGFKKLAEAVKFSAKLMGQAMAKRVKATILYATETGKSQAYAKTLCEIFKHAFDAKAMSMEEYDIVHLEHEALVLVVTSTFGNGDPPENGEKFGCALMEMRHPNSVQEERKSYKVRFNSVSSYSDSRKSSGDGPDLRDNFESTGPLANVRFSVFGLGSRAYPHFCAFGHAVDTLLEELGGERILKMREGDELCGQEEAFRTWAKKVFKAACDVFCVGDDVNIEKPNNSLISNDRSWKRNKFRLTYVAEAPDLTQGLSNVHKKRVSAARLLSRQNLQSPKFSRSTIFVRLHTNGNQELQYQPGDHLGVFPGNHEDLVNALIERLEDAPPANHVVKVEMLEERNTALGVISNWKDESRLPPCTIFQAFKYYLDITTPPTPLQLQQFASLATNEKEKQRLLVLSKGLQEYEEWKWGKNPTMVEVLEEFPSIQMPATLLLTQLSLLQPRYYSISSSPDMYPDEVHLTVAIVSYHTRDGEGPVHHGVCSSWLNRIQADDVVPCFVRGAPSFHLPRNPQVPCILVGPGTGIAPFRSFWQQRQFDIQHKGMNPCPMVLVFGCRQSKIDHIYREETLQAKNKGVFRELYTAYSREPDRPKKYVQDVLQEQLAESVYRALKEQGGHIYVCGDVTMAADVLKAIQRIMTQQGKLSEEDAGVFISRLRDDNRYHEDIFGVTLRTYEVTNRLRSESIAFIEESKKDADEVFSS
T3 sequence (P29474 2-1203): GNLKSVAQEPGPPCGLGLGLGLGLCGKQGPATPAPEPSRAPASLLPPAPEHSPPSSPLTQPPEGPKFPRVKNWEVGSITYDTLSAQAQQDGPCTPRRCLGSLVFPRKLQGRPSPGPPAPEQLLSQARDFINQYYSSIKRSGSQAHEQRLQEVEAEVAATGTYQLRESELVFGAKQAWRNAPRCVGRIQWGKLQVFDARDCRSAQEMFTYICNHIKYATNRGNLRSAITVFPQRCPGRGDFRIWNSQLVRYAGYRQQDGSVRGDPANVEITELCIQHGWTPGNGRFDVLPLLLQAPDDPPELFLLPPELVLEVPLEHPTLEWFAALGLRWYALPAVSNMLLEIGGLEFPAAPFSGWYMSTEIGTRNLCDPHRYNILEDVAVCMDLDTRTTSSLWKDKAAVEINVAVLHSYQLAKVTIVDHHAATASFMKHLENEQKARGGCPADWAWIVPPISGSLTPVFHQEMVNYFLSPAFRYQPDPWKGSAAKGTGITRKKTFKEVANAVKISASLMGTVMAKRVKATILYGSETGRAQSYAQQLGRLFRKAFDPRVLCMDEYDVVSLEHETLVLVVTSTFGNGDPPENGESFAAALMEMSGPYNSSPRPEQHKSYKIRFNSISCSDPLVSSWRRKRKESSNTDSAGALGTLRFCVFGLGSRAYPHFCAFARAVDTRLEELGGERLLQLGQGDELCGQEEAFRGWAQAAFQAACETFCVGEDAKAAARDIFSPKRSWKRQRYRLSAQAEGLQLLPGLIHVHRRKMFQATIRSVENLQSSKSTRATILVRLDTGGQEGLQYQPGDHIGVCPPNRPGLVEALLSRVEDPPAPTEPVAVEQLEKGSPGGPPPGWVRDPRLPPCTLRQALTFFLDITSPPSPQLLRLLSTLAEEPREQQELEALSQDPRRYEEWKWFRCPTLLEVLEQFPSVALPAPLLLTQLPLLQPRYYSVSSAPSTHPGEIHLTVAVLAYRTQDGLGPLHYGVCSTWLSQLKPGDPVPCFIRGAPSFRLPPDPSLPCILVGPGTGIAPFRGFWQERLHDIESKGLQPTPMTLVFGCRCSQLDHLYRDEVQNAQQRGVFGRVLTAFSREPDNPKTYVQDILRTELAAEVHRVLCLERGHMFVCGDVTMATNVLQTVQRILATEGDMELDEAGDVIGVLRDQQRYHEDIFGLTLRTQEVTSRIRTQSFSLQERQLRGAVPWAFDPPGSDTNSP

As for `N=C(Nc1ccc(CCCC(=O)N2CCOCC2)cc1)c1cccs1` [27(a), N-(4-(3-((4-morpholinyl)carbonyl)propyl)phenyl)-2-thiophenecarboximidamide], the IC50 in assay [1] is under 10 µM.
As to `NC(=Nc1ccc(CCNCc2ccccc2)cc1)c1cccs1` [Example 1, N-(4-(2-((phenylmethyl)amino)ethyl)phenyl)-2-thiophenecarboximidamide], the “IC50 in Screen B relative to IC50 in Screen A” value in assay [2] is “more than 10 times”. Further, the “IC50 in Screen C relative to IC50 in Screen A” value in assay [3] (endothelial isoform (Screen C) versus neuronal isoform (Screen A)) was “more than 10 times”. Besides, the IC50 in assay [1] was under 10 µM.
Regarding `N=C(Nc1ccc(C(=O)Nc2ccccc2)cc1)c1cccs1` [Example 27(b), N-(4-((phenylamino)carbonyl)phenyl)-2-thiophenecarboximidamide], in assay [1], the IC50 was under 10 µM.
As to `NC(=Nc1ccc(NC(=O)N(c2ccccc2)c2ccccc2)cc1)c1cccs1` [Example 48, N-[4-(((Diphenylamino)carbonyl)amino)phenyl]-2-thiophenecarboxamidine], the IC50 in assay [1] was under 100 µM.
The term inhibition denotes the share of the control response that was lost under treatment. With `CN(CCc1ccc(NC(=N)C(F)(F)F)cc1)Cc1ccccc1` [Example 72, N-(4-(2-((phenylmethyl)(methyl)amino)ethyl)phenyl)trifluoroacetimidamide], the inhibition at 10 µM in assay [1] (at 10 μM) turned out to be 17%.
Take `NC(=N[N+](=O)[O-])NCCC[C@H](N)C(=O)O` [N-nitro-L-arginine, reference compound]: the inhibition at 1 µM in assay [3] (Screen C, at a concentration of 1 μM, HUVEC enzyme, read-out: inhibition of nitric oxide synthetase (reference standard)) is 70 to 90%.

Source of the values: patent US5807885A, “Amidine derivatives with nitric oxide synthetase activities” (priority 1996, dated 1998).
